From EPA's ToxValDB 9.5 (doi:10.2903/j.efsa.2008.118r)
In brackets after ≈: the same amount, converted by molar mass.

What was measured:
Oncorhynchus mykiss = details: acute; duration: 96 hours; mortality
Canidae = details: chronic; duration: 1 years; oral; M/F; Dog Other; histopathology: nonneoplastic
Apis mellifera = details: acute; duration: 48 hours; oral; unspecified; mortality
Tagia sp. = details: acute; duration: 14 days; mortality
Colinus virginianus = details: reproduction developmental
Coturnix japonica = details: acute, oral, mortality
Typhlodromus pyri = details: acute
Daphnia magna = details: chronic/long-term; duration: 21 days; reproduction

`c1coc(-c2nc3ccccc3[nH]2)c1` [Fuberidazole] was tested, and the LC50 (Oncorhynchus mykiss) was 0.91 µg/mL (≈ 4.94 µM), the NOAEL (Canidae) was 0.72 mg/kg-day and the LD50 (Apis mellifera) was greater than 187 µg/piece. It also gave an LC50 (Tagia sp.) greater than 1000 mg/kg, an NOEC (Colinus virginianus) greater than 76.9 mg/kg-day and an LC50 (Coturnix japonica; diet) greater than 930 mg/kg-day. For the same molecule, the LD50 (Coturnix japonica) was greater than 750 mg/kg, the LD50 (Rattus norvegicus; acute, mortality) was greater than 300 mg/kg and the NOAEL (Rattus norvegicus; developmental, development) was 8 mg/kg-day. For the same molecule, the NOAEL (Rattus norvegicus; reproduction developmental, mortality) was 4 mg/kg-day, the LEL (Typhlodromus pyri; duration: 7 days, mortality) was 26 g/ha and the LEL (Typhlodromus pyri; duration: 14 days, reproduction) was 26 g/ha. The NOEC (Daphnia magna) was 0.12 mg/L.
